Measured values from patent US4599336A, “Derivatives of (E)-3-(4-oxo-4H-quinazolin-3-yl)-2-propenamide” (Hoffmann-La Roche Inc., priority 1983, dated 1986).
Read-outs that look alike come from different tables or passages of the source.

Columns and labels:
[1] = system: SRS-A-induced constriction of the guinea pig ileum; test: Guinea Pig Ileum, In Vitro (inhibition of SRS-A-induced constriction); type: cell-based; details: Cavia porcellus; for IC50: SRS-A-induced constriction, in vitro, read-out: Guinea Pig Ileum, IC50
Procedure: The guinea pig ileum bioassay system has been described by Orange and Austen, Adv. Immunol. […] A 1.5 cm segment is removed from animals weighing 300-400 g. and suspended in an organ bath containing 10 ml. of Tyrodes solution with 10^-6 M atropine sulfate and 10^-6 M pyrilamine maleate. […] The SRS-A utilized in this screen is obtained by challenging chopped lung fragments from actively sensitized guinea pigs with egg albumin, in vitro. A dose-response curve to SRS-A challenge is established for the ileum. […] The drug concentration which inhibits, by 50%, the SRS-A-induced constriction of the guinea pig ileum is determined.

TXA2 synthase = molecular target: T1, TXA2 synthase (Homo sapiens, UniProt P24557); test: Thromboxane Synthase Inhibition, In Vitro; type: biochemical; details: human platelet microsomes; for inhibition at 0.1 µM: at 10^-7 M
T1 construct: using microsomal fractions from human platelets as enzyme source; from tissue; host or cells: human platelets, microsomal fraction
T1 sequence (P24557 1-533): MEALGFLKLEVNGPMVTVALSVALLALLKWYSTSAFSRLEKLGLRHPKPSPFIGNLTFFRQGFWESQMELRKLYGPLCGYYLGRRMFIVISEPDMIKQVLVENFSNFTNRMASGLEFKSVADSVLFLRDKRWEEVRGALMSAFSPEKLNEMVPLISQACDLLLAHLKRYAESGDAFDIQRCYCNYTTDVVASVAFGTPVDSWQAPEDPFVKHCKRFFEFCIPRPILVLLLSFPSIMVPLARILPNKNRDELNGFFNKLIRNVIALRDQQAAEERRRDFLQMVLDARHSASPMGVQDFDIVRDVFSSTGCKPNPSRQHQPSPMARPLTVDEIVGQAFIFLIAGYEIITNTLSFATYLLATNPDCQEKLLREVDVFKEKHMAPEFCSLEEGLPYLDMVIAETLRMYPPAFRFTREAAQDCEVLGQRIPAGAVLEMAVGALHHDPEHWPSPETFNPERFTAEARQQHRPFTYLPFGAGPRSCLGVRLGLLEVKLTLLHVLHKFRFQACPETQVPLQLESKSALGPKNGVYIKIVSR
Procedure: TXA2 synthase activity is measured by following the conversion of ^14 C-prostaglandin endoperoxide (PGH2) to ^14 C-thromboxane A2 (TXA2) using microsomal fractions from human platelets as enzyme source. In the aqueous incubation medium, the TXA2 decomposes rapidly into TXB2. The amount of TXA2 synthase is adjusted so that under the conditions of the assay approximately 80-90% of the substrate, PGH2, is converted to product in control tubes. To prepare ^14 C--PGH2, ^14 C--AA (50-60 mCi/mmole; Rose Chem.) is incubated with sheep seminal vesicular gland microsomes for 1.5 minutes at 37° C. and then the ^14 C--PGH2 is extracted with diethylether, purified on columns of Sephadex LH-20 or silicic acid, and stored in acetone at -70° C. Incubations are done as follows. Sufficient ^14 C--PGH2 to yield a final substrate concentration of 10 μM (30,000 cpm) is added to the incubation tubes and then the acetone is removed under nitrogen. The tubes are placed in an ice bath and then 215 μl of ice cold phosphate buffered saline, 10 μl of ethanol (control) or of test drug in ethanol, and 25 μl of the microsomal suspension are added with mixing in that order as rapidly as possible. The tubes are incubated at 22° C. for 2 minutes, the reaction is stopped and then the radioactive products and the uncoverted PGH2 are extracted and analyzed by thin layer chromatography. […] The amount of ^14 C--PGH2 converted to products was used as a measure of TXA2 synthase activity. Inhibitors were tested initially at a final concentration of 100 μM. Results obtained with representative compounds of the present invention in this assay are summarized hereafter in Table I.

Δ^5 -Lipoxygenase = molecular target: T2, Δ^5 -Lipoxygenase (Rattus norvegicus, UniProt P12527); test: Δ^5 -Lipoxygenase Inhibition; type: biochemical; details: at 10^-5 M; RBL-1 cell supernatant
T2 construct: using rat basophil leukemia cells (RBL-1 cells) as the enzyme source; endogenous in cells; host or cells: RBL-1 (rat basophil leukemia) cells, 49,300×g supernatant of homogenate
T2 sequence (P12527 1-673): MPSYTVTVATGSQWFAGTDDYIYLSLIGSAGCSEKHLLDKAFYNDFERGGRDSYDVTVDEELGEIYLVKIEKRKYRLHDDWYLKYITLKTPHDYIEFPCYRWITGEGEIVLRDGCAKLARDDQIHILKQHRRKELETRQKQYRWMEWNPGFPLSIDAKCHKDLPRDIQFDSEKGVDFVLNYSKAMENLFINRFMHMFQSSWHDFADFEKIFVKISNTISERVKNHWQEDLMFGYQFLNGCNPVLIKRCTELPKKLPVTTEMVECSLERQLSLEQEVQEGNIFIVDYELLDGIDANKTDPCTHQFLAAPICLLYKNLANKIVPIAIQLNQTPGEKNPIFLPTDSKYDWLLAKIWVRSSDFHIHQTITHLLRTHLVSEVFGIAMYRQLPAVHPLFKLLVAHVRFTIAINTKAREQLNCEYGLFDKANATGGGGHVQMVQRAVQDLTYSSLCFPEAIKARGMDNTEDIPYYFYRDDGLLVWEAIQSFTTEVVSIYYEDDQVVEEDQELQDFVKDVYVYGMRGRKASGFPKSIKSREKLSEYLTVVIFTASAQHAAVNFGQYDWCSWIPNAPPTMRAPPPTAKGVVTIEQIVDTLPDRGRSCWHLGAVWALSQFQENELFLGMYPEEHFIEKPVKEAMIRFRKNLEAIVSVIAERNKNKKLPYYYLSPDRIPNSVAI
Procedure: Δ^5 -Lipoxygenase inhibition was measured by following the conversion of ^14 C-arachidonic acid to ^14 C-5-HETE, using rat basophil leukemia cells (RBL-1 cells) as the enzyme source. These cells were maintained in stationary stock cultures and grown in spinner cultures prior to isolation by centrifugation at 4° C. at 1,500×g for 10 minutes. The cells were washed three times at 4° C. with 0.05M Tris HCl (ph 7.2) containing 1 mM EDTA, 14 μM indomethacin and 0.9% NaCl. They were then homogenized at 0°-4° C. using a glass/glass homogenizer in 0.05M Tris-HCl (pH 7.2) containing 1 mM EDTA and 14 μM indomethacin. The homogenate was then centrifuged at 49,300×g for 20 minutes (0°-4° C.) and the resulting supernatant frozen in small aliquots in a dry ice/acetone bath prior to storage at -80° C. Under these conditions, the enzyme was stable to freezing and thawing and to preincubation for 10 minutes at 30° C.
For enzyme assay, 100-200 μl of enzyme was incubated in the presence and absence of test compound (prepared in DMSO) for 10 minutes at 30° C. in 0.05M Tris-HCl buffer (pH 7.2) containing 1 mM glutathione, 2 mM CaCl2, 14 μM indomethacin and 0.25 and 0.5 mM EDTA (final volume 400 μl). The final DMSO concentration in these assays was 4%. The assay was initiated by the addition of 100 μl ^14 C-arachidonic acid (58 mCi/mmole) and incubations were carried out for 10 minutes at 37° C. in a shaking water bath. The reactions were stopped by the simultaneous addition of 4.0 ml of diethylether and 100 μl of 1.0 m citric acid, while the tubes were vigorously vortexed. The ^14 C-5-HETE generated by the enzyme was extracted into the acidified ether layer which was separated from the aqueous layer by freezing the assay tubes in a dry ice/acetone bath prior to decanting the liquid ether layer. The ether layer was evaporated to dryness under N2, the residue dissolved in 65 μl chloroform:methanol (2:1 v/v), prior to separating ^14 C-5-HETE from other ^14 C-labeled compounds on silica gel impregnated glass fiber TLC plates utilizing an elution solvent of isoctane:methylethylketone:acetic acid (100:9:1 v/v). ^14 C-5-HETE was identified by its co-chromatography with a chemically synthesized standard. The radioactive peaks of the chromatogram were cut out and the radioactivity was quantitated by liquid scintillation counting. The amount of 5-HETE obtained per sample was expressed as the percent of total and was calculated in the basis of: [formula] in order to evaluate the effect of the test compounds, the mean percent inhibition of ^14 C-5-HETE production was calculated. The IC50 for a drug was determined from a linear regression analysis of a plot of the mean percent inhibition vs drug concentration.

[2] = molecular target: T3, PAF receptor (dog platelets) (Canis lupus familiaris, UniProt A0A8I3NSH0); test: PAF Radioreceptor Binding Assay; details: 3H-PAF
T3 construct: followed by 2×10^7 dog platelets; from tissue; host or cells: dog platelets, washed, intact
T3 sequence (A0A8I3NSH0 1-343): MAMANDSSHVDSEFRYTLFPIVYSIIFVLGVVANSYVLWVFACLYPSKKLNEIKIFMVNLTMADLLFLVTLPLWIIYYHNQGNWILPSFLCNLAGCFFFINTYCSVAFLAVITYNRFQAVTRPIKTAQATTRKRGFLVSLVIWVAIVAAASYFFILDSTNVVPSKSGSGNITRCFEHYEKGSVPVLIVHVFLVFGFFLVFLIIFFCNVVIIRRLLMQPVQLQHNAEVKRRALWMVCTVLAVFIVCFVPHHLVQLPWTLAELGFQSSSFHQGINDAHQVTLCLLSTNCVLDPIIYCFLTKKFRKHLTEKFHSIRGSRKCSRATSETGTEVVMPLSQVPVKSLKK
Procedure: Platelet rich plasma is prepared by centrifugation of citrate-treated dog blood. Acidification to pH 6.5 with 0.15M citric acid and centrifugation for 10 minutes at 1000 g yields a platelet pellet which is then washed by resuspension in EDTA-Phosphate Buffered Saline (PBS) and recentrifuged. The washed platelet preparation is adjusted to 2×10^7 platelets/50 μl in 0.1% BSA-PBS.
To a […] microfuge tube containing 50 μl silicone oil (specific gravity 1.023) is added buffer, PAF standard or analog, or an extract to bring the aqueous volume to 150 μl. 50 μl of ^3 H-PAF (10,000 cpm, 45 Ci/mM) is added followed by 2×10^7 dog platelets. After mixing, incubating for 10 minutes at room temperature, and centrifuging for 1 minute in a Beckman Microfuge B (8000 g), the pellet is removed by clipping off the tip of the tube, solubilizing the platelets with 200 μl of 50% methanol, and counting in 10 ml of Aquasol. […] Results obtained with representative compounds of the present invention in this assay are summarized hereinafter in Table I.

[3] = system: LTE4-induced increase of vascular permeability in rat skin; test: Rat Skin Permeability, In Vivo (LTE4-induced wheal); details: LTE4 intradermal
[4] = system: LTD4-induced blood pressure changes and arrhythmias; test: Leukotriene D4 (LTD4) Induced Arrhythmias in Conscious Guinea Pigs; type: in vivo, guinea pig; details: 10 mg/kg iv, 5 minutes before LTD4; for Peak Hypertension (Δmm Hg): saline control 30 ± 4; for % Arrhythmias: saline control 33 ± 4; for Peak Hypotension (Δmm Hg): saline control -45 ± 4
Procedure: Male Hartley guinea pigs are anesthetized with sodium pentobarbital and prepared for monitoring direct blood pressure and injecting drugs intravenously by catheterizing the right carotid artery and right jugular vein. Blood pressure, heart rate, and Lead II ECG are monitored in the conscious animal 24 hours later.
Intravenous administration of LTD4 (2.5 μg/kg) is associated with an increase in blood pressure lasting approximately 1-2 minutes followed by a decrease lasting approximately 5-15 minutes. Abnormal beats consisting of premature ventricular contractions, ST elevation or depression, atrioventricular conduction block, or dissociated p waves begin during the rise in blood pressure; the peak effect occurs approximately 40 seconds after LTD4. The percent of abnormal beats was quantitated by determining the number present during the first 2 minutes after injection and calculating the percent increase above the control level. During the hypotensive response, the animal usually collapses during the 2nd or 3rd minute after LTD4 and regains posture approximately 10 minutes after LTD4.
Test compounds were administered 5 minutes before the LTD4 challenge and effects on blood pressure and arrhythmias were monitored.

Compound: CC(C)c1ccc2ncn(/C=C/C(=O)N(C)CCCCc3cccnc3)c(=O)c2c1
- IC50 [1]: 10 µM
- inhibition at 0.1 µM (TXA2 synthase): 48%

Compound: CC(C)c1ccc2ncn(/C=C/C(=O)NCCSc3ccncc3)c(=O)c2c1
- inhibition at 10 µM (Δ^5 -Lipoxygenase): 56%
- IC50 [1]: 10 µM
- inhibition at 0.1 µM (TXA2 synthase): 31%

Compound: CC(C)c1ccc2ncn(/C=C/C(=O)NCCNCc3cccnc3)c(=O)c2c1
- IC50 [1]: 8 µM
- inhibition at 1 µM (TXA2 synthase; at 10^-6 M): 33%

Compound: CC(C)c1ccc2ncn(/C=C/C(=O)NCCCNc3cccnc3)c(=O)c2c1
- inhibition at 10 µM (Δ^5 -Lipoxygenase): 10%
- IC50 [1]: 5 µM
- IC50 [2]: > 1 µM

Compound: CC(C)c1ccc2ncn(/C=C/C(=O)NCCCCCCNc3ccccn3)c(=O)c2c1
- inhibition at 10 µM (Δ^5 -Lipoxygenase): 25%
- IC50 [1]: 5 µM

Compound: CC(C)c1ccc2ncn(/C=C/C(=O)NCCCCCCc3cccnc3)c(=O)c2c1
- IC50 [2]: > 1 µM

Compound: CC(C)c1cc(C(C)C)c2ncn(/C=C/C(=O)NCCCCc3cccnc3)c(=O)c2c1
- IC50 [1]: 1 µM
- inhibition at 0.1 µM (TXA2 synthase): 51%

Compound: CC(C)c1ccc2ncn(/C=C/C(=O)NCCCCn3ccnc3)c(=O)c2c1 [Compound C, N-[4-(1H-imidazol-1-yl)butyl]-(E)-3-[6-(1-methylethyl)-4-oxo-4H quinazolin-3-yl]-2-propenamide]
- ED50 ([3]; iv, 0.5 h, i.v., read-out: I.D.50, skin wheal, i.v.): 17 mg/kg
- ED50 ([3]; po, read-out: I.D.50, skin wheal, oral): 96 mg/kg

Compound: CC(C)c1ccc2ncn(/C=C/C(=O)NCCCCOc3cccnc3)c(=O)c2c1 [drawing 14]
- inhibition at 10 µM ([1]; at 10^-5 M): 44%
- IC50 [2]: > 1 µM
- inhibition at 0.1 µM (TXA2 synthase): 70%

Compound: CC(C)c1ccc2ncn(/C=C/C(=O)NCCCCc3cccnc3)c(=O)c2c1 [drawing 29]
- Peak Hypertension (Δmm Hg) [4]: 21 ± 6 Δmm Hg
- % Arrhythmias [4]: 1 ± 1%
- Peak Hypotension (Δmm Hg) [4]: -45 ± 4 Δmm Hg

Compound: CC(C)c1ccc2ncn(/C=C/C(=O)NCCCCOc3cccnc3)c(=O)c2c1 [drawing 30]
- Peak Hypertension (Δmm Hg) [4]: 19 ± 7 Δmm Hg
- % Arrhythmias [4]: 0 ± 0%
- Peak Hypotension (Δmm Hg) [4]: -42 ± 9 Δmm Hg

Compound: CC(C)c1ccc2ncn(/C=C/C(=O)NCCCCn3ccnc3)c(=O)c2c1 [drawing 31]
- Peak Hypertension (Δmm Hg) [4]: 10 ± 0 Δmm Hg
- % Arrhythmias [4]: 0 ± 3%
- Peak Hypotension (Δmm Hg) [4]: -45 ± 8 Δmm Hg
